Among the data in patent publication US20230118795A1, “ARYL OR HETEROARYL PYRIDONE OR PYRIMIDINE DERIVATIVE, PREPARATION METHOD AND USE THEREOF” (SUZHOU ZELGEN BIOPHARMACEUTICALS CO., LTD., priority 2020, published 2023) are IC50 values, retold here.

Molecules are shown by their SMILES.

The test system of the experiment is NCI-H358 (KRAS^G12C mutation) cell. The experiment can be described thus: Cell assay of antiproliferative activity against NCI-H358 cell (Celltiter-Glo, 5 days). The following applies: 5 days incubation. In kind it is cell-based. The protocol:
Cell Assay of Antiproliferative Activity of Compounds Against NCI-H358 (KRAS^G12C Mutation) Cell.
40 μL phosphate buffer was added to the outer wells of the 384 microplate, and 40 μL cell suspension to be tested was added to the other wells. Then the microplate was incubated in a carbon dioxide incubator overnight.
The compounds to be tested were gradiently diluted, each compound was performed 10 concentration gradients (diluted from 50 μM to 0.003 μM) and added 100 nL to the corresponding wells in the microplate. After addition, 40 μl of phosphate buffer was added to each well in rows A and P and columns 1 and 24, and then the microplate was incubated in a carbon dioxide incubator for 5 days.
20 μL of Promega Celltiter-Glo reagent was added to each well of the microplate, and then the luminescence signal was stabilized by oscillating at room temperature for 10 min. Then PekinElmer Envision multi-label analyzer was used to read.
Finally, GraphPad Prism software was used to calculate the IC50 value of the compound and the fitting curve was drawn.
Anti-proliferative activity of the compounds of the present invention against NCI-H358 (KRAS^G12C mutation) cell was shown in Table 1.
(In general: ATP-based viability assays read luminescence as a measure of living cells.)

In general, IC50 refers to the concentration needed to halve the response being measured. Read a low IC50 as higher potency. As for `C=C(F)C(=O)N1CCN(c2nc(=O)n(-c3c(C(C)C)cccc3S(C)(=O)=O)c3nc(-c4ccccc4Cl)c(F)cc23)[C@@H](C)C1` [Example 23, (S)-7-(2-chlorophenyl)-6-fluoro-4-(4-(2-fluoroacryloyl)-2-methylpiperazin-1-yl)-1-(2-isopropyl-6-(methylsulfonyl)phenyl)pyridino[2,3-d]pyrimidin-2(1H)-one], for the setting “Homo sapiens, NCI-H358, 120 h”, the IC50 came out at 1100 nM. On the same count and under the same terms, the result for `C=CC(=O)N1CCN(c2nc(=O)n(-c3c(C(C)C)cccc3S(C)(=O)=O)c3nc(-c4c(F)cccc4C(=O)OC)c(F)cc23)[C@@H](C)C1` [Example 77] reads greater than 10000 nM; that for `C=CC(=O)N1CCN(c2nc(=O)n(-c3c(C)cccc3S(=O)(=O)C(C)C)c3nc(-c4c(O)cccc4F)c(F)cc23)[C@@H](C)C1` [Example 4, 4-((S)-4-acryloyl-2-methylpiperazin-1-yl)-6-fluoro-7-(2-fluoro-6-hydroxyphenyl)-1-(2-(isopropylsulfonyl)-6-methylphenyl) pyridino[2,3-d] pyrimidin-2(1H)-one], 420 nM. `C=CC(=O)N1CCN(c2nc(=O)n(-c3c(C)cccc3S(C)(=O)=O)c3nc(-c4c(O)cccc4F)c(F)cc23)[C@@H](C)C1` (single isomer, unassigned) [Example 87A] came in with an IC50 of less than 30 nM. For the molecule `C=CC(=O)N1CCN(c2nc(=O)n(-c3c(C(C)C)cccc3S(C)(=O)=O)c3nc(-c4ccccc4Cl)c(F)cc23)[C@@H](C)C1` (single isomer, unassigned) [Example 30A], inhibition was half-maximal at 740 nM (IC50). `C=CC(=O)N1CCN(c2nc(=O)n(-c3c(C(C)C)cccc3S(C)(=O)=O)c3nc(-c4c(O)cccc4F)c(F)cc23)[C@@H](C)C1` (single isomer, unassigned) [Example 10A] showed an IC50 of 280 nM. Compared with the last molecule, the IC50 is about 2.6-fold lower. Under “Homo sapiens, NCI-H358, 120 h”, `C=CC(=O)N1CCN(c2nc(=O)n(-c3c(C(C)C)cccc3S(C)(=O)=O)c3nc(-c4ccnn4C)c(F)cc23)[C@@H](C)C1` [Example 68, (S)-4-(4-acryloyl-2-methylpiperazin-1-yl)-6-fluoro-1-(2-isopropyl-6-(methylsulfonyl)phenyl)-7-(1-methyl-1H-pyrazol-5-yl) pyridino [2,3-d] pyrimidin-2(1H)-one] had an IC50 of 2200 nM. Still for that read-out and setting: the result for `C=CC(=O)N1CCN(c2nc(=O)n(-c3ccccc3S(C)(=O)=O)c3nc(-c4c(O)cccc4F)c(F)cc23)[C@@H](C)C1` [Example 85, 4-((S)-4-acryloyl-2-methylpiperazin-1-yl)-6-fluoro-7-(2-fluoro-6-hydroxyphenyl)-1-(2-(methylsulfonyl)phenyl) pyridino[2,3-d] pyrimidin-2(1H)-one] reads less than 1000 nM. With `C=C(F)C(=O)N1CCN(c2nc(=O)n(-c3c(C(C)C)cccc3S(C)(=O)=O)c3nc(-c4c(O)cccc4F)c(F)cc23)[C@@H](C)C1` [Example 21], inhibition (Homo sapiens, NCI-H358, 120 h) was half-maximal at 1200 nM (IC50).

The molecule `C=CC(=O)N1CCN(c2nc(=O)n(-c3c(C(C)C)ccnc3S(C)(=O)=O)c3nc(-c4c(O)cccc4F)c(F)cc23)[C@@H](C)C1` [Example 16, 4-((S)-4-acryloyl-2-methylpiperazin-1-yl)-6-fluoro-7-(2-fluoro-6-hydroxyphenyl)-1-(4-isopropyl-2-(methylsulfonyl)pyridin-3-yl) pyridino [2,3-d] pyrimidin-2 (1H)-one] displayed an IC50 (Homo sapiens, NCI-H358, 120 h) of 12 nM.

As to `C=CC(=O)N1CCN(c2nc(=O)n(-c3c(C(C)C)cccc3S(C)(=O)=O)c3nc(-c4cccn(C)c4=O)c(F)cc23)[C@@H](C)C1` [Example 73, (S)-4-(4-acryloyl-2-methylpiperazin-1-yl)-6-fluoro-1-(2-isopropyl-6-(methylsulfonyl)phenyl)-7-(1-methyl-2-oxo-1,2-dihydropyridin-3-yl) pyridino[2,3-d] pyrimidin-2 (1H)-one], for the setting “Homo sapiens, NCI-H358, 120 h”, the IC50 was greater than 10000 nM. `C=CC(=O)N1CCN(c2nc(=O)n(-c3c(C)cccc3S(C)(=O)=O)c3nc(-c4c(O)cccc4F)c(F)cc23)CC1CC#N` (stereo not drawn) [Example 57, 2-(1-acryloyl-4-(6-fluoro-7-(2-fluoro-6-hydroxyphenyl)-1-(2-methyl-6-(methylsulfonyl)phenyl)-2-oxo-1,2-dihydropyridino [2,3-d]pyrimidin-4-yl)piperazin-2-yl) acetonitrile] showed an IC50 of 10000 nM. `C=CC(=O)N1CCN(c2nc(=O)n(-c3c(C)cccc3N(C)S(C)(=O)=O)c3nc(-c4c(O)cccc4F)c(F)cc23)[C@@H](C)C1` [Example 11] gave a 50% inhibitory concentration (IC50) (Homo sapiens, NCI-H358, 120 h) of 180 nM. On the same count and under the same terms, to `C=CC(=O)N1CCN(c2nc(=O)n(-c3c(Cl)cccc3S(C)(=O)=O)c3nc(-c4c(O)cccc4F)c(F)cc23)[C@@H](C)C1` [Example 8, 4-((S)-4-acryloyl-2-methylpiperazin-1-yl)-1-(2-chloro-6-(methylsulfonyl)phenyl)-6-fluoro-7-(2-fluoro-6-hydroxyphenyl) pyridino [2,3-d] pyrimidin-2 (1H)-one] belongs 170 nM. On the same count and under the same terms, the result for `C=CC(=O)N1CCN(c2nc(=O)n(-c3c(C(C)C)ccnc3S(C)(=O)=O)c3nc(-c4cccc(F)c4Cl)c(F)cc23)[C@@H](C)C1` [Example 26, (S)-4-(4-acryloyl-2-methylpiperazin-1-yl)-7-(2-chloro-3-fluorophenyl)-6-fluoro-1-(4-isopropyl-2-(methylsulfonyl)pyridin-3-yl) pyridino[2,3-d] pyrimidin-2(1H)-one] reads 18 nM. With `C=CC(=O)N1CCN(c2nc(=O)n(-c3c(C4CCC4)cccc3S(C)(=O)=O)c3nc(-c4c(O)cccc4F)c(F)cc23)[C@@H](C)C1` (single isomer, unassigned) [Example 25A], half-maximal inhibition (IC50) required 350 nM. Consider `C=CC(=O)N1CCN(c2nc(=O)n(-c3c(C(C)C)cccc3S(C)(=O)=O)c3nc(-c4c(F)cccc4OC(C)=O)c(F)cc23)[C@@H](C)C1` (single isomer, unassigned) [Example 31A], for which the midpoint of inhibition, the IC50, lay at 300 nM. Molecule `C=CC(=O)N1C[C@H](C)N(c2nc(=O)n(-c3c(CC)cccc3S(=O)(=O)C(C)C)c3nc(-c4c(O)cccc4F)c(F)cc23)C[C@H]1C` (single isomer, unassigned) [Example 82B] returned an IC50 of 50 nM. Against the preceding molecule, the IC50 is about 6-fold lower.

The molecule `C=CC(=O)N1CCN(c2nc(=O)n(-c3c(C(C)C)cccc3S(C)(=O)=O)c3nc(-c4cccc(=O)[nH]4)c(F)cc23)[C@@H](C)C1` [Example 72, (S)-4-(4-acryloyl-2-methylpiperazin-1-yl)-6-fluoro-1-(2-isopropyl-6-(methylsulfonyl)phenyl)-7-(6-oxo-1,6-dihydropyridin-2-yl) pyridino[2,3-d] pyrimidin-2 (1H)-one] came in with an IC50 (Homo sapiens, NCI-H358, 120 h) greater than 10000 nM.

Regarding `C=CC(=O)N1CCN(c2nc(=O)n(-c3c(C(C)C)cccc3S(C)(=O)=O)c3nc(-c4c(C)ncn4C)c(F)cc23)[C@@H](C)C1` [Example 76, 4-((S)-4-acryloyl-methylpiperazin-1-yl)-7-(1,4-dimethyl-1H-imidazol-5-yl)-6-fluoro-1-(2-isopropyl-6-(methylsulfonyl)phenyl) pyridino [2,3-d] pyrimidin-2 (1H)-one], the IC50 (Homo sapiens, NCI-H358, 120 h) was greater than 10000 nM. With `C=CC(=O)N1C[C@H](C)N(c2nc(=O)n(-c3c(C(C)C)cccc3S(C)(=O)=O)c3nc(-c4c(O)cccc4F)c(F)cc23)C[C@H]1C` [Example 78A], the IC50 (Homo sapiens, NCI-H358, 120 h) came out at 170 nM. This lies in the sub-micromolar range. As to `C=CC(=O)N1CCN(c2nc(=O)n(-c3c(CC)cccc3S(=O)(=O)C(C)C)c3nc(-c4c(O)cccc4F)c(F)cc23)[C@@H](C)C1` (single isomer, unassigned) [Example 83B], the IC50 stood at 26 nM. Where the note is “Homo sapiens, NCI-H358, 120 h”, `C=CC(=O)N1CCN(c2nc(=O)n(-c3c(C)cccc3S(C)(=O)=O)c3nc(-c4c(O)cccc4F)c(F)cc23)[C@@H](CC#N)C1` [Example 3, 2-((2S)-4-acryloyl-1-(6-fluoro-7-(2-fluoro-6-hydroxyphenyl)-1-(2-methyl-6-(methylsulfonyl)phenyl)-2-oxo-1,2-dihydropyridino[2,3-d]pyrimidin-4-yl)piperazin-2-yl) acetonitrile] came in with an IC50 of 870 nM. This lies in the sub-micromolar range. As for `C=CC(=O)N1CCN(c2nc(=O)n(-c3c(S(C)(=O)=O)ccnc3C(C)C)c3nc(-c4c(O)cccc4F)c(F)cc23)[C@@H](C)C1` [Example 18, 4-((S)-4-acryloyl-2-methylpiperazin-1-yl)-6-fluoro-7-(2-fluoro-6-hydroxyphenyl)-1-(2-isopropyl-4-(methylsulfonyl)pyridin-3-yl)pyridino[2,3-d]pyrimidin-2 (1H)-one], the 50% inhibitory concentration (IC50) was determined as 30 nM. This lies in the double-digit nanomolar range.

`C=CC(=O)N1CCN(c2nc(=O)n(-c3cccnc3S(C)(=O)=O)c3nc(-c4c(O)cccc4F)c(F)cc23)[C@@H](C)C1` [Example 54, 4-((S)-4-acryloyl-2-methylpiperazin-1-yl)-6-fluoro-7-(2-fluoro-6-hydroxyphenyl)-1-(2-(methylsulfonyl)pyridin-3-yl) pyridino [2,3-d] pyrimidin-2(1H)-one] yielded an IC50 of 2500 nM. Molecule `C=CC(=O)N1C[C@H](C)N(c2nc(=O)n(-c3c(C4CCC4)cccc3S(C)(=O)=O)c3nc(-c4c(O)cccc4F)c(F)cc23)C[C@H]1C` [Example 63A] registered an IC50 (Homo sapiens, NCI-H358, 120 h) of 370 nM. This counts as sub-micromolar. `C=CC(=O)N1CCN(c2nc(=O)n(-c3ccccc3S(=O)(=O)C(C)C)c3nc(-c4c(O)cccc4F)c(F)cc23)[C@@H](C)C1` [Example 86, 4-((S)-4-acryloyl-2-methylpiperazin-1-yl)-6-fluoro-7-(2-fluoro-6-hydroxyphenyl)-1-(2-(isopropylsulfonyl)phenyl) pyridino[2,3-d] pyrimidin-2(1H)-one] displayed an IC50 (Homo sapiens, NCI-H358, 120 h) of less than 1000 nM.
